We go through 23 compounds from ChEMBL document CHEMBL3856204, “Chiral 6-aryl-furo[2,3-d]pyrimidin-4-amines as EGFR inhibitors” (Eur J Med Chem, 2016).

Bounds are passed on as bounds.

In the assay the target is Epidermal growth factor receptor (Homo sapiens, UniProt P00533). The assay can be described thus: Inhibition of recombinant human GST-tagged EGFR cytoplasmic domain (668 to 1210 residues) expressed in baculovirus by Z'-LYTE assay.
Epidermal growth factor receptor, sequence (P00533 whole entry, the tested form may be a part): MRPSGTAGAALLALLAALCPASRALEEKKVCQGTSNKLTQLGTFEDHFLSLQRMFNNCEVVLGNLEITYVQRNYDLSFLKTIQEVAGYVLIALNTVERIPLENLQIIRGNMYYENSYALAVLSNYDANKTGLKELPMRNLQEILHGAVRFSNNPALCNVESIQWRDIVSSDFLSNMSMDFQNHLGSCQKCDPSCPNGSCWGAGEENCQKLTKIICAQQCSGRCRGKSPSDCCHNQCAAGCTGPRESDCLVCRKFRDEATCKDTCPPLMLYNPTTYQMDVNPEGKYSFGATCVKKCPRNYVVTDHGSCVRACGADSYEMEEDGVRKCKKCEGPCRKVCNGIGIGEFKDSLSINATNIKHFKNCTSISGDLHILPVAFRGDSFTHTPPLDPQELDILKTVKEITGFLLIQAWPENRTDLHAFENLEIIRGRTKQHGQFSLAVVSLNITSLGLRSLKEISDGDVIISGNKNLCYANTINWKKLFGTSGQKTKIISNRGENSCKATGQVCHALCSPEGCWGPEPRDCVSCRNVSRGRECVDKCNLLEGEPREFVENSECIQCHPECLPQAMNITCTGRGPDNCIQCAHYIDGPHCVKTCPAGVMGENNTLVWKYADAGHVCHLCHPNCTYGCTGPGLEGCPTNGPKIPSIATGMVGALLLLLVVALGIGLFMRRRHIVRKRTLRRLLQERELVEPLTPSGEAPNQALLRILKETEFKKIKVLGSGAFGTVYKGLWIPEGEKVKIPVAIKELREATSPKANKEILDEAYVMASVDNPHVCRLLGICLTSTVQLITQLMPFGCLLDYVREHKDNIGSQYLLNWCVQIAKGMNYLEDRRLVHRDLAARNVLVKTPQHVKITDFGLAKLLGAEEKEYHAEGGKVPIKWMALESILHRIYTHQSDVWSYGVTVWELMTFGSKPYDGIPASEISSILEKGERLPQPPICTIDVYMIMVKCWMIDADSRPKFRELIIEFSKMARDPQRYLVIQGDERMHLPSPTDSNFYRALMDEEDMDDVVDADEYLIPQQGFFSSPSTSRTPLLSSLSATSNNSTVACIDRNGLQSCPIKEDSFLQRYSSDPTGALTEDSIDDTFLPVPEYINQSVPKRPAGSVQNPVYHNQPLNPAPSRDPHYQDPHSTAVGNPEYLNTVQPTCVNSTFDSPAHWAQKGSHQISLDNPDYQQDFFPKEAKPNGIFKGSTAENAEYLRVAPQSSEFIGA
As to `c1ccc(CNc2ncnc3oc(-c4ccccc4)cc23)cc1`, the IC50 was 93 nM.

For the compound `COc1ccc(-c2cc3c(N[C@H](C)c4ccccc4F)ncnc3o2)cc1`, the IC50 came to 24 nM.

In the case of `COc1ccccc1-c1cc2c(N[C@H](C)c3ccccc3)ncnc2o1`, the IC50 was 4 nM.

Turning to `COC[C@@H](Nc1ncnc2oc(-c3ccccc3)cc12)c1ccccc1`, the IC50 is 28 nM.

Take `COc1cccc(-c2cc3c(N[C@H](C)c4ccccc4)ncnc3o2)c1`: the IC50 stood at 7 nM.

Turning to `COc1ccc(-c2cc3c(N[C@H](C)c4ccc(F)cc4)ncnc3o2)cc1`, the IC50 came to 27 nM.

For the compound `COc1ccc(-c2cc3c(N[C@H](C)c4cccc(F)c4)ncnc3o2)cc1`, the IC50 turned out to be 24 nM.

Turning to `C[C@@H](Nc1ncnc2oc(-c3ccc(Br)cc3)cc12)c1ccccc1`, the IC50 turned out to be 56 nM.

Consider `C[C@@H](Nc1ncnc2oc(-c3ccc(NCCN4CCOCC4)cc3)cc12)c1ccccc1`, for which the IC50 is 1.1 nM.

For `COc1ccc(-c2cc3c(N[C@H](CCO)c4ccccc4)ncnc3o2)cc1`, the IC50 came to 4 nM.

For `C[C@@H](Nc1ncnc2oc(-c3ccc(O)cc3)cc12)c1ccccc1`, the half-maximal inhibitory concentration (IC50) stood at 1.5 nM.

Regarding `C=Cc1ccc(-c2cc3c(N[C@H](C)c4ccccc4)ncnc3o2)cc1`, the 50% inhibitory concentration (IC50) came out at 29 nM.

As to `COc1ccc(-c2cc3c(N[C@H](C)C4CCCCC4)ncnc3o2)cc1`, the IC50 is above 100 nM.

In the case of `C[C@@H](Nc1ncnc2oc(-c3cccc(O)c3)cc12)c1ccccc1`, the 50% inhibitory concentration (IC50) came out at 4.6 nM.

For `COc1ccc(-c2cc3c(N[C@@H](C)c4ccccc4)ncnc3o2)cc1`, the IC50 was above 1000 nM.

As for `C[C@@H](Nc1ncnc2oc(-c3ccc(F)cc3)cc12)c1ccccc1`, the IC50 was 13 nM.

For the compound `COc1ccc(-c2cc3c(N[C@@H](C)CO)ncnc3o2)cc1`, the IC50 was above 100 nM.

With `COc1ccc(-c2cc3c(NCc4ccccc4)ncnc3o2)cc1`, the IC50 was 74 nM.

As to `COc1ccc(-c2cc3c(N[C@H](C)c4ccccc4)ncnc3o2)cc1`, the concentration for half-maximal inhibition (IC50) is 5.3 nM.

As for `CC[C@@H](Nc1ncnc2oc(-c3ccc(OC)cc3)cc12)c1ccccc1`, the half-maximal inhibitory concentration (IC50) was 22 nM.

As to `C[C@@H](Nc1ncnc2oc(-c3ccccc3)cc12)c1ccccc1`, the concentration for half-maximal inhibition (IC50) came to 11 nM.

In the case of `COc1ccc(-c2cc3c(NC(CC(N)=O)c4ccccc4)ncnc3o2)cc1` (racemic), the half-inhibitory concentration (IC50) amounted to 22 nM.

For the compound `C[C@@H](Nc1ncnc2oc(-c3ccc(C#N)cc3)cc12)c1ccccc1`, the concentration for half-maximal inhibition (IC50) worked out at 44 nM.

Usually IC50 stands for the concentration at which inhibition is half-maximal.
